ChEMBL document CHEMBL4725309, “Potent, non-covalent reversible BTK inhibitors with 8-amino-imidazo[1,5-a]pyrazine core featuring 3-position bicyclic ring substitutes” (Bioorg Med Chem Lett, 2020)
pIC50: −log10 of the molar value. Each block holds one compound with its values, some of them ahead of it.

Legend:
[1] = molecular target: T1, Tyrosine-protein kinase BTK (Homo sapiens, UniProt Q06187); assay: Inhibition of BTK in human PBMC assessed as reduction in cell surface CD69 expression preincubated for 1 hr followed by stimulation with goat anti-human IgM F(ab')2 for 18 hrs by immunostaining analysis; type: tissue-based
[2] = molecular target: T1, Tyrosine-protein kinase BTK; assay: Inhibition of recombinant full length BTK (unknown origin) expressed in baculovirus infected Sf9 cells using Biotin-EQEDEPEGDYFEWLE-NH2 peptide as substrate incubated for 60 mins followed by further incubation with substrate and ATP for 120 mins by TR-FRET assay
[3] = molecular target: T1, Tyrosine-protein kinase BTK; assay: Inhibition of BTK in human whole blood assessed as reduction in cell surface CD69 expression preincubated for 1 hr followed by stimulation with anti-CD79b for 3 hrs by immunostaining analysis; type: tissue-based
[4] = Cmax in Beagle dog at 2 mg/kg, po; type: ADME, organism-based, Canis lupus familiaris; set-up: route oral, dose 2 mg/kg; conditions: in vivo
[5] = Oral bioavailability in Beagle dog at 2 mg/kg; type: ADME, organism-based, Canis lupus familiaris; conditions: in vivo
[6] = Half life in Beagle dog at 1 mg/kg, iv; type: ADME, organism-based, Canis lupus familiaris; conditions: in vivo
[7] = molecular target: Tyrosine-protein kinase FRK (Homo sapiens, UniProt P42685); assay: Inhibition of FRK (unknown origin)
[8] = molecular target: Tyrosine-protein kinase Yes (Homo sapiens, UniProt P07947); assay: Inhibition of YES1 (unknown origin)
[9] = molecular target: Protein-tyrosine kinase 6 (Homo sapiens, UniProt Q13882); assay: Inhibition of PTK6 (unknown origin)
[10] = molecular target: T2, Cytoplasmic tyrosine-protein kinase BMX (Homo sapiens, UniProt P51813); assay: Inhibition of BMX (unknown origin)
T2 sequence (P51813 whole entry): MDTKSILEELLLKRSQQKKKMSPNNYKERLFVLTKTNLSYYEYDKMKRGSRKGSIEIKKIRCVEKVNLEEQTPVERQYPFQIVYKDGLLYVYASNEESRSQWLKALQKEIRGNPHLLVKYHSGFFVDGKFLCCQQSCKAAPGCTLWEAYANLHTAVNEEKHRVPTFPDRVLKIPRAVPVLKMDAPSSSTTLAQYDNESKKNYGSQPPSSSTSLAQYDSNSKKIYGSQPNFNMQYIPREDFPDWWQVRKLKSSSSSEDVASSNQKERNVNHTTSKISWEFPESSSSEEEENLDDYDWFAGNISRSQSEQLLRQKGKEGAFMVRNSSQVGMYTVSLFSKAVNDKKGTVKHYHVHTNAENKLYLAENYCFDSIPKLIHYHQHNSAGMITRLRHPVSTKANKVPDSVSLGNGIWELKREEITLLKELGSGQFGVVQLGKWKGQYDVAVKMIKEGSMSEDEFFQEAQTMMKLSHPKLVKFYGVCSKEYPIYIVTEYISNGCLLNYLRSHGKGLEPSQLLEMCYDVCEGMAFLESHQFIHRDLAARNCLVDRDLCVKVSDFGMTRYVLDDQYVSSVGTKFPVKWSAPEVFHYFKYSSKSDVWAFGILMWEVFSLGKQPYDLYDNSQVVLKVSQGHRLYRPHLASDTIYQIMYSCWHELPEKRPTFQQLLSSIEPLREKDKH

[11] = Volume of distribution at steady state in Wistar Han rat at 2 mg/kg, iv; type: ADME, organism-based; conditions: in vivo, read-out: Vdss
[12] = molecular target: Tyrosine-protein kinase Lck (Homo sapiens, UniProt P06239); assay: Inhibition of LCK (unknown origin)
[13] = Tmax in Wistar Han rat at 5 mg/kg, po; type: ADME, organism-based; conditions: in vivo
[14] = Half life in Wistar Han rat at 2 mg/kg, iv; type: ADME, organism-based; conditions: in vivo
[15] = molecular target: Tyrosine-protein kinase Fgr (Homo sapiens, UniProt P09769); assay: Inhibition of FGR (unknown origin)
[16] = molecular target: Tyrosine-protein kinase Blk (Homo sapiens, UniProt P51451); assay: Inhibition of BLK (unknown origin)
[17] = AUC in Wistar Han rat at 2 mg/kg, iv; type: ADME, organism-based; set-up: dose 2 mg/kg; conditions: in vivo
[18] = molecular target: Tyrosine-protein kinase CSK (Homo sapiens, UniProt P41240); assay: Inhibition of CSK (unknown origin)
[19] = molecular target: Receptor tyrosine-protein kinase erbB-4 (Homo sapiens, UniProt Q15303); assay: Inhibition of ERBB4 (unknown origin)
[20] = AUC in Beagle dog at 1 mg/kg, iv; type: ADME, organism-based, Canis lupus familiaris; set-up: dose 1 mg/kg; conditions: in vivo
[21] = molecular target: Proto-oncogene tyrosine-protein kinase Src (Homo sapiens, UniProt P12931); assay: Inhibition of SRC (unknown origin)
[22] = molecular target: Tyrosine-protein kinase Fyn (Homo sapiens, UniProt P06241); assay: Inhibition of FYN (unknown origin)
[23] = Tmax in Beagle dog at 2 mg/kg, po; type: ADME, organism-based, Canis lupus familiaris; conditions: in vivo
[24] = molecular target: T3, Tyrosine-protein kinase TXK (Homo sapiens, UniProt P42681); assay: Inhibition of TXK (unknown origin)
T3 sequence (P42681 whole entry): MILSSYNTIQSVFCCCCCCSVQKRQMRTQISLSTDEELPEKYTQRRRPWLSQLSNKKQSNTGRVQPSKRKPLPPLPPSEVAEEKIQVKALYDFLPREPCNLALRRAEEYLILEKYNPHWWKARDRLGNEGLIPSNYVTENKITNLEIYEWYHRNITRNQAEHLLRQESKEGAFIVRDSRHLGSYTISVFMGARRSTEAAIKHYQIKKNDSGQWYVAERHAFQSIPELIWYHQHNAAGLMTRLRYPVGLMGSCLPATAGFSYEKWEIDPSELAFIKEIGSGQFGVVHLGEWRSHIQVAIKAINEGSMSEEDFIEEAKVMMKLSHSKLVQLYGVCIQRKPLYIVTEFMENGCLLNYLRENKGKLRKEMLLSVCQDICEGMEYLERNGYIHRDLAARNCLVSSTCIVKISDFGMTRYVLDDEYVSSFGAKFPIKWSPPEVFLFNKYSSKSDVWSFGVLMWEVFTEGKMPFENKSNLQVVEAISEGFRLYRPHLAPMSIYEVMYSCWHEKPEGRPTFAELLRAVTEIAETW

[25] = molecular target: T4, Tyrosine-protein kinase Tec (Homo sapiens, UniProt P42680); assay: Inhibition of TEC (unknown origin)
T4 sequence (P42680 whole entry): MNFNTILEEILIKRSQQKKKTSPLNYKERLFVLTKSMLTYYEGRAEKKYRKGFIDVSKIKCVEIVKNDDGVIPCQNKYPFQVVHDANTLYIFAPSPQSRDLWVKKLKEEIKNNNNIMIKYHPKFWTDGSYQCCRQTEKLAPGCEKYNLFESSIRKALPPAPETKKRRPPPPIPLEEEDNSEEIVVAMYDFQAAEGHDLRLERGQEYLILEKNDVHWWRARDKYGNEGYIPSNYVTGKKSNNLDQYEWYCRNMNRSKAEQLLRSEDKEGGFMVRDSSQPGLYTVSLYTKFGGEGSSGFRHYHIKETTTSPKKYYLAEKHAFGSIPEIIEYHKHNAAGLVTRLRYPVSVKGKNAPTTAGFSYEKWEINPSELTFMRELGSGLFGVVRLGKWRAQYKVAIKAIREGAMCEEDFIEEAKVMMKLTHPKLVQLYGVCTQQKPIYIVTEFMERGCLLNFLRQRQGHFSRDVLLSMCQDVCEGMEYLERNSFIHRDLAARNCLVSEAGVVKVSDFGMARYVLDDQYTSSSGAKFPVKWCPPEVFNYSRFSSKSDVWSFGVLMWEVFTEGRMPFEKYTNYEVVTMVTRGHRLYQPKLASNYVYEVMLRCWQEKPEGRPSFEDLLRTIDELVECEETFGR

[26] = Cmax in Wistar Han rat at 5 mg/kg, po; type: ADME, organism-based; set-up: route oral, dose 5 mg/kg; conditions: in vivo
Rattus norvegicus = assay: Antiarthritic activity in Lewis rat model of collagen-induced arthritis assessed as decrease in paw thickness at 15 to 120 mg/kg, po qd and measured for 30 days; type: functional, organism-based; conditions: dose mg/kg 15-120, time 30.0 day
[27] = molecular target: Tyrosine-protein kinase Lyn (Homo sapiens, UniProt P07948); assay: Inhibition of LYNB (unknown origin)
[28] = molecular target: Tyrosine-protein kinase Srms (Homo sapiens, UniProt Q9H3Y6); assay: Inhibition of SRMS (unknown origin)
[29] = Clearance in Wistar Han rat at 2 mg/kg, iv; type: ADME, organism-based; conditions: in vivo
[30] = Volume of distribution at steady state in Beagle dog at 1 mg/kg, iv; type: ADME, organism-based, Canis lupus familiaris; conditions: in vivo, read-out: Vdss
[31] = Clearance in Beagle dog at 1 mg/kg, iv; type: ADME, organism-based, Canis lupus familiaris; conditions: in vivo
[32] = Oral bioavailability in Wistar Han rat at 5 mg/kg; type: ADME, organism-based; conditions: Wistar Han, in vivo

T1 sequence (Q06187 whole entry): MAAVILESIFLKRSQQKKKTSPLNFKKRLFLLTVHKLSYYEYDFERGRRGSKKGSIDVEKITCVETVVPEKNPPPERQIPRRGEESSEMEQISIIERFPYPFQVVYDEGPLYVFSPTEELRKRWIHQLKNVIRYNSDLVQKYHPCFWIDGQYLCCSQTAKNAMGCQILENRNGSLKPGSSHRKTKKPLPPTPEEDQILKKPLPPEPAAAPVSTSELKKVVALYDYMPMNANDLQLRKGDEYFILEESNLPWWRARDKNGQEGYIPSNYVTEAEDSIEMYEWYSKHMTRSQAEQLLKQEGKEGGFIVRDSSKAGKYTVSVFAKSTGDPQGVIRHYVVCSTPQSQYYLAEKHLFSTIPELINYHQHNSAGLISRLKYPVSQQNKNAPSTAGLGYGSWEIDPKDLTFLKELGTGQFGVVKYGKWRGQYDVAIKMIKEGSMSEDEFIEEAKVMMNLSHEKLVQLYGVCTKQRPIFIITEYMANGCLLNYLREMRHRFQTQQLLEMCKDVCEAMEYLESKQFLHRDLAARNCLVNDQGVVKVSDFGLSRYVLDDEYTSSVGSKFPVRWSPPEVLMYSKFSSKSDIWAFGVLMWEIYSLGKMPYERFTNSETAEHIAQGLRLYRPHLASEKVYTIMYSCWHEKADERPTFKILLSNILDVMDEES
Tyrosine-protein kinase Srms, sequence (Q9H3Y6 whole entry): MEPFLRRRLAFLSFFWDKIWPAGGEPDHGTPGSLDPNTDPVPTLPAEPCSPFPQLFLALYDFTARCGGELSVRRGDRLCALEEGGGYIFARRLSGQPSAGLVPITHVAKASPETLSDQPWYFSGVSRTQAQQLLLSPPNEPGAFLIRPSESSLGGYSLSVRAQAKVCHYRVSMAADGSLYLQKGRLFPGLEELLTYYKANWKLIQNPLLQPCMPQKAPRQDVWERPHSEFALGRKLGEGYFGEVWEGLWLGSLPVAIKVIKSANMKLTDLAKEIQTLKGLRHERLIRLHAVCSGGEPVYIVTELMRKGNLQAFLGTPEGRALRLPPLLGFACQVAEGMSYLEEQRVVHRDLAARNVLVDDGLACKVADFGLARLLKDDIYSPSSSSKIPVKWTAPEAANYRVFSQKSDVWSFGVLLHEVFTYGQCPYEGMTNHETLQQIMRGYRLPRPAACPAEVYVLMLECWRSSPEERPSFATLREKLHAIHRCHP
Tyrosine-protein kinase Lyn, sequence (P07948 whole entry): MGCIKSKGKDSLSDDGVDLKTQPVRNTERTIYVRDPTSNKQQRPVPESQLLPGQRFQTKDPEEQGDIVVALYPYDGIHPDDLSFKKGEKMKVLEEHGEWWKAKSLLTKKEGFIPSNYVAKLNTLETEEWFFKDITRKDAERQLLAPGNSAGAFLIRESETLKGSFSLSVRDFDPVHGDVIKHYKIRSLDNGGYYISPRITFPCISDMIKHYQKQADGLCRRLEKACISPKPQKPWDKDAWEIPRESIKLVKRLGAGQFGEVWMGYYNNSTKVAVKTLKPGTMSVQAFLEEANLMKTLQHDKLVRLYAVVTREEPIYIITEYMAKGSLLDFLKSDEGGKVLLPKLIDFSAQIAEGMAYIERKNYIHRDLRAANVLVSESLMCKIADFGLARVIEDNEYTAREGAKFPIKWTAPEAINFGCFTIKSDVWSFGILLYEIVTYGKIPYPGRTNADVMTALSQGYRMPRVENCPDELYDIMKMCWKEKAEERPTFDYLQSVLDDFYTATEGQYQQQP
Tyrosine-protein kinase Fyn, sequence (P06241 whole entry): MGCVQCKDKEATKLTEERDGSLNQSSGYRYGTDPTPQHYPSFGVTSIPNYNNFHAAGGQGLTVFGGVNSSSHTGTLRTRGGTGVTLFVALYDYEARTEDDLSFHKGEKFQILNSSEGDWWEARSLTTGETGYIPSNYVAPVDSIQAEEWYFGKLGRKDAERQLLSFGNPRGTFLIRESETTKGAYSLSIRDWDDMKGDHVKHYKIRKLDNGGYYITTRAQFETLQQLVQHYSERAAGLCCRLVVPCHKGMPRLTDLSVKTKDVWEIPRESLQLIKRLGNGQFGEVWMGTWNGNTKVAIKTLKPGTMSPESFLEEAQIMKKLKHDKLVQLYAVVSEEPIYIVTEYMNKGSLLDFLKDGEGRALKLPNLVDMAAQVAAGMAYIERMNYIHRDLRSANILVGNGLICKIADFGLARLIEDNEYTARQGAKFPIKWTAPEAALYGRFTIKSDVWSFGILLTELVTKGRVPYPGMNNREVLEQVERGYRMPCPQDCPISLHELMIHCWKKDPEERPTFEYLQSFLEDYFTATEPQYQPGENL
Proto-oncogene tyrosine-protein kinase Src, sequence (P12931 2-536 limits assumed): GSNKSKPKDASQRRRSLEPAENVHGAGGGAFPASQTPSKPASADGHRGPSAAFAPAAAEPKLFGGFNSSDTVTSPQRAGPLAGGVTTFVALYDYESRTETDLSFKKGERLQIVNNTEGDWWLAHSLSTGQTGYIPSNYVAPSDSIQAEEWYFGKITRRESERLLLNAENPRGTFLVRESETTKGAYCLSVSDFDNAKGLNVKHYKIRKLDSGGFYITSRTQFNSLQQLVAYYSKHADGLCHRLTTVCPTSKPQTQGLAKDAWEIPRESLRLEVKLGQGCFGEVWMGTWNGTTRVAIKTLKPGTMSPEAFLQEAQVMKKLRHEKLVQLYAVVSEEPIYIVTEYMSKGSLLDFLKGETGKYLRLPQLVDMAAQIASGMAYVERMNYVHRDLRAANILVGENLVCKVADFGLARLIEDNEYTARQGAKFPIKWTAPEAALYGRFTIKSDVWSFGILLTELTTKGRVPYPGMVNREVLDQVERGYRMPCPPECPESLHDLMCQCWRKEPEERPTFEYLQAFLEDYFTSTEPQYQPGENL
Tyrosine-protein kinase Fgr, sequence (P09769 whole entry): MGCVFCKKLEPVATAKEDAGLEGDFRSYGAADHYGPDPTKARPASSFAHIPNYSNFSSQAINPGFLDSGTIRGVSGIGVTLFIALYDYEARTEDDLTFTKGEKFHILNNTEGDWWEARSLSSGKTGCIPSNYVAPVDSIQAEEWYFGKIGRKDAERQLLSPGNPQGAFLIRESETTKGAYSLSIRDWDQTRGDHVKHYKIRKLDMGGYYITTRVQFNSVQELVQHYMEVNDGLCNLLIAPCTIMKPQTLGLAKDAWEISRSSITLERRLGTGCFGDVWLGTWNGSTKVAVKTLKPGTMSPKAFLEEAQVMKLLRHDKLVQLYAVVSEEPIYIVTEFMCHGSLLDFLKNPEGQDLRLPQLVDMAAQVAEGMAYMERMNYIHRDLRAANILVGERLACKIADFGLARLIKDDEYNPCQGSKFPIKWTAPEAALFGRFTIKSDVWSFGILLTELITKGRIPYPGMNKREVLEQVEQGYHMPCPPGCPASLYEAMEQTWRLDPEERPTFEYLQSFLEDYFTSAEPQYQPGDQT
Tyrosine-protein kinase Lck, sequence (P06239 whole entry): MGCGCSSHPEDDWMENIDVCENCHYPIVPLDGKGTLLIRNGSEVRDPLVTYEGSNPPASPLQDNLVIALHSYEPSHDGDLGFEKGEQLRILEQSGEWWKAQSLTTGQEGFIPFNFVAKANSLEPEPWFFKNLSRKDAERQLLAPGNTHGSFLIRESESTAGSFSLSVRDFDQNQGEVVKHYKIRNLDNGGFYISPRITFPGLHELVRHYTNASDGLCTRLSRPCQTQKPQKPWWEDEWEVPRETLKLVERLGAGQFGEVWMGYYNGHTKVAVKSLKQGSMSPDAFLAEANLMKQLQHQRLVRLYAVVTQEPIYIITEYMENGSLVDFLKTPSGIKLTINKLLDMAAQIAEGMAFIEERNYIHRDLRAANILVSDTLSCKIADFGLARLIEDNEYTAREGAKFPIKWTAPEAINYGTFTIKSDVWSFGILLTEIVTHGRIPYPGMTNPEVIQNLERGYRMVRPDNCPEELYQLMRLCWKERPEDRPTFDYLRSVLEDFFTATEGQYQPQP
Tyrosine-protein kinase Yes, sequence (P07947 whole entry): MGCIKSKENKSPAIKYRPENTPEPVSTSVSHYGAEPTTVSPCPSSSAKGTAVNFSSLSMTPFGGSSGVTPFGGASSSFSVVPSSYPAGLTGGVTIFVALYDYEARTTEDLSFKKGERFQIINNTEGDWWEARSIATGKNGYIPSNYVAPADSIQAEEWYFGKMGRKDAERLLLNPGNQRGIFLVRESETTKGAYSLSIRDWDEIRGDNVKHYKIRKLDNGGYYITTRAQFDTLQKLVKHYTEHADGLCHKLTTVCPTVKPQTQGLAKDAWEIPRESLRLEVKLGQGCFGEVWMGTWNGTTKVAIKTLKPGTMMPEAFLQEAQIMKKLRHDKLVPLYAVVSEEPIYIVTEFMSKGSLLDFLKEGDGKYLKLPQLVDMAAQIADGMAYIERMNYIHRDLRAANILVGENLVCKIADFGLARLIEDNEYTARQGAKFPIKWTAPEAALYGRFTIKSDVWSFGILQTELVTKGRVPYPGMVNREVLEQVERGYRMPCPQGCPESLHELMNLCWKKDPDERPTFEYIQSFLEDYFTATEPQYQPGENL
Protein-tyrosine kinase 6, sequence (Q13882 whole entry): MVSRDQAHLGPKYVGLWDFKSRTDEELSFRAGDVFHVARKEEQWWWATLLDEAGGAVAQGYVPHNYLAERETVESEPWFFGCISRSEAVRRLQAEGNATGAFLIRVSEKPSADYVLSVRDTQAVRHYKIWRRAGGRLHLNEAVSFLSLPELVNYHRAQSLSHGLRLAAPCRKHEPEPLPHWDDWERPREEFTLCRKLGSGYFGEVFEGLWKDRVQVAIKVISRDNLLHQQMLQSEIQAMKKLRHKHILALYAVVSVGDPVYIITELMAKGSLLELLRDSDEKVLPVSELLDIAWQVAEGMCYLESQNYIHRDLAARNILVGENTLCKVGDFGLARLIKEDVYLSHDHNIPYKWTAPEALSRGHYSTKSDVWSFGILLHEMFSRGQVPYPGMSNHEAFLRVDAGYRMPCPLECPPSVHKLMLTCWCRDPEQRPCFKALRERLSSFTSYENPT

Structure (SMILES): CCOc1cc(C(=O)Nc2cc(C(F)(F)F)ccn2)ccc1-c1nc([C@@H]2CC[C@H]3CCC(=O)N3C2)n2ccnc(N)c12
pIC50 [1]: 8.00
pIC50 [3]: 7.04

Structure (SMILES): NC(=O)c1cc(C(=O)Nc2cc(C(F)(F)F)ccn2)ccc1-c1nc([C@@H]2CC[C@H]3CCC(=O)N3C2)n2ccnc(N)c12
pIC50 [1]: < 5.52

Structure (SMILES): CN1C[C@@H]2CC[C@@H](c3nc(-c4ccc(C(=O)Nc5cc(C(F)(F)F)ccn5)cc4)c4c(N)nccn34)CN2C1=O
pIC50 [1]: 6.39

Structure (SMILES): C[C@H]1CC[C@@H](c2nc(-c3ccc(C(=O)Nc4cc(C(F)(F)F)ccn4)cc3F)c3c(N)nccn23)CN1C(=O)C1CC1
AUC [17]: 3.1 µM·h
AUC [20]: 20 µM·h

Structure (SMILES): C[C@H]1OC(=O)N2C[C@H](c3nc(-c4ccc(C(=O)Nc5cc(C(F)(F)F)ccn5)cc4)c4c(N)nccn34)CC[C@@H]12
pIC50 [1]: 8.49
pIC50 [3]: 7.20

Now from value to compound, other results behind:

pIC50 [1]: 7.41
Structure (SMILES): Nc1nccn2c([C@@H]3CC[C@H]4CCCC(=O)N4C3)nc(-c3ccc(C(=O)Nc4cc(C(F)(F)F)ccn4)cc3F)c12

pIC50 [1]: 7.80
pIC50 [2]: 9.59
pIC50 [3]: 6.98
Structure (SMILES): CN1CC(=O)N2C[C@H](c3nc(-c4ccc(C(=O)Nc5cc(C(F)(F)F)ccn5)cc4F)c4c(N)nccn34)CC[C@H]2C1

Cmax [4]: 1100 nM
bioavailability [5]: 108%
half-life [6]: 3.4 h
pIC50 [7]: 6.81
pIC50 [8]: 7.27
pIC50 [9]: 7.08
pIC50 [10]: 7.72
Vd [11]: 4 L/kg
pIC50 [12]: 7.59
Tmax [13]: 2.1 h
half-life [14]: 3 h
pIC50 [15]: 7.19
pIC50 [16]: 7.00
AUC [17]: 1.1 µM·h
pIC50 [18]: 6.64
pIC50 [19]: 6.80
AUC [20]: 1.6 µM·h
pIC50 [21]: 7.15
pIC50 [22]: 5.91
Tmax [23]: 1.5 h
pIC50 [24]: 6.99
pIC50 [25]: 7.17
Cmax [26]: 50 nM
pIC50 [27]: 6.79
pIC50 [28]: 7.80
clearance [29]: 53 mL/min/kg
Vd [30]: 3 L/kg
clearance [31]: 20 mL/min/kg
bioavailability [32]: 9.5%
Structure (SMILES): COc1cc(C(=O)Nc2cc(C(F)(F)F)ccn2)ccc1-c1nc([C@@H]2CC[C@H]3CCC(=O)N3C2)n2ccnc(N)c12
Activity (Rattus norvegicus): Dose-dependent effect

pIC50 [1]: 6.57
Structure (SMILES): N#Cc1cc(C(=O)Nc2cc(C(F)(F)F)ccn2)ccc1-c1nc([C@@H]2CC[C@H]3CCC(=O)N3C2)n2ccnc(N)c12

pIC50 [1]: 8.24
pIC50 [2]: 10.00
pIC50 [3]: 7.11
Structure (SMILES): Nc1nccn2c([C@@H]3CC[C@H]4COCC(=O)N4C3)nc(-c3ccc(C(=O)Nc4cc(C(F)(F)F)ccn4)cc3F)c12

pIC50 [1]: 7.96
Structure (SMILES): Nc1nccn2c([C@@H]3CC[C@H]4CCC(=O)N4C3)nc(-c3ccc(C(=O)Nc4cc(C(F)(F)F)ccn4)cc3O)c12
